Test results published in patent publication US20210009557A1, “ACYCLIC CXCR4 INHIBITORS AND USES THEREOF” (X4 Pharmaceuticals, Inc., priority 2017, published 2021).

Experiments:
[1] = target: T1, CXCR-4 transfected U87 cell line (U87.CXCR4) (Homo sapiens, UniProt P61073); assay: Intracellular CXCL-12-induced calcium mobilization assay (FLIPR); assay type: cell-based; conditions: U87.CXCR4 cells; CXCL-12 25-50 ng/mL; compounds added 15 minutes before; read-out: IC50 CXCL-12 Ca2+ flux U87.CXCR4+
T1 construct: expressed in transfected cells; host or cells: U87 cell line (U87.CXCR4)
Procedure: Intracellular calcium mobilization induced by chemokines orchemokine-derived peptides were evaluated using a calcium responsive fluorescent probe and a FLIPR system. The CXCR-4 transfected U87 cell line (U87.CXCR4) cells were seeded in gelatine-coated black-wall 96-well plates at 20,000 cells per well and incubated for 12 hours. Cells were then loaded with the fluorescent calcium probe Fluo-2 acetoxymethyl at 4 μM final concentration in assay buffer (Hanks' balanced salt solution with 20 mM HEPES buffer and 0.2% bovine serum albumin, pH 7.4) for 45 min at 37′C. The intracellular calcium mobilization induced by the CXCL-12 (25-50 ng/mL) was then measured at 37° C. by monitoring the fluorescence as a function of time in all the wells simultaneously using a fluorometric imaging plate reader (FLIPR Tetra, Molecular Devices).

[2] = target: T2, Jurkat cells expressing CXCR4 (Homo sapiens, UniProt P61073); assay: Chemokine (CXCL12-AF647) binding inhibition assay; conditions: CXCL12-AF647 25 ng/mL, read-out: IC50 CXCL-12 binding Jurkat
T2 construct: Jurkat cells expressing CXCR4; endogenous in cells; host or cells: Jurkat cells
Procedure: Jurkat cells expressing CXCR4 were washed once with assay buffer (Hanks' balanced salt solution with 20 mM HEPES buffer and 0.2% bovine serum albumin, pH 7.4) and then incubated for 15 min at room temperature with the test compounds diluted in assay buffer at dose-dependent concentrations. Subsequently, CXCL12-AF647 (25 ng/mL) was added to the compound-incubated cells. The cells were incubated for 30 min at room temperature. Thereafter, the cells were washed twice in assay buffer, fixed in 1% paraformaldehyde in PBS, and analyzed on the FL4 channel of a FACSCalibur flow cytometer equipped with a 635-nm red diode laser (Becton Dickinson, San Jose, Calif., USA).
The percentages of inhibition of CXCL12-AF647 binding were calculated according to the formula: [1−((MFI−MFINC)/(MFIPC−MFINC))]×100 where MFI is the mean fluorescence intensity of the cells incubated with CXCL12-AF647 in the presence of the inhibitor, MFINC is the mean fluorescence intensity measured in the negative control (i.e., autofluorescence of unlabeled cells), and MFIPC is the mean fluorescence intensity of the positive control (i.e., cells exposed to CXCL12-AF647 alone).

[3] = in vitro; conditions: human, Caco-2, pH 7.4
Procedure: (§1) The goal of this assay was to evaluate the intestinal absorption potential of drug candidates using Caco-2 cell lines.
(§2) Experimental Procedure • 1. Pre-warm Pre-warm HBSS Buffer in 37° C. water bath • 2. Sonicate Take compounds from −20° C., sonicate for a few minutes (no less than 1 minute) • 3. Solution preparation
(§3) For A-to-B Direction: • HBSS buffer with 0.3% DMSO and 5 μM LY: add 150 μL DMSO and 50 μL LY (5 mM) into 50 ml HBSS buffer (pH 7.4). • HBSS buffer with 0.1% DMSO and 5 μM LY: add 50 μL DMSO and 50 μL LY (5 mM) into 50 mL HBSS buffer (pH 7.4).
(§4) For B-to-A Direction: • HBSS buffer with 0.3% DMSO: add 150 μL DMSO into 50 ml HBSS buffer (pH 7.4). HBSS buffer with 0.1% DMSO: add 50 μL DMSO into 50 ml HBSS buffer (pH 7.4).
(§5) For A-to-B Direction: • Prepare HBSS buffer with 0.4% DMSO: add 200 μL DMSO into 50 ml HBSS buffer (pH 7.4).
(§6) For B-to-A Direction: • Prepare HBSS buffer with 0.4% DMSO and 5 μM LY: add 200 μL DMSO and 50 μL LY (5 mM) into 50 ml HBSS buffer (pH 7.4).
(§7) • 4. Measure TEER Take cell culture plate out of incubator, wash the cell monolayers with HBSS buffer, and then measure TEER values at Rm temperature. • 5. Centrifuge Centrifuge the compound solution (from step 3) at 4000 rpm for 5 min before loading to donor chambers. • 6. Dosing Add solution based on the volumes listed in the following table (make sure to take extra 100 μL of donor sample for T0 as Backup).
(§8) • 7. Apical LYTO samples To determine LY concentration in the apical chamber, take 100 μL sample from apical chambers into an opaque plate for LYTO. • 8. Pre-warm Pre-warm apical and basolateral plates at 37° C. for about 5 min, then begin transport by placing the apical plate onto basolateral plate. • 9. Incubation Keep the plates in incubator at 37° C. for 90 min. • 10.
(§9) • Prepare 1× solution: • 3 μL (20×)+57 μL of 0.4% DMSO HBSS+60 μL ACN with IS (Osalmid or Imipramine)—120 μL (1×) • 11. Transport termination Separate the apical plate from the basolateral plate after 90-min incubation. • 12. Measure LY Take 100 μL samples from basolateral plate to an opaque plate as LYT90. • 13. Measure LY concentrations for LYTO and LYT90 by Fluorometer (at excitation of 485 nm/emission of 535 nm). • 14.
(§10) Drug permeability: Papp=(VA/(Area×time))×([drug]accepter/(([drug]initial, donor)×Dilution Factor) • Where VA is the volume in the acceptor well, area is the surface area of the membrane and time is the total transport time in seconds.
(§11) For Millicell-24 Cell Culture Plates: surface area of the membrane=0.7 cm^2, VA=0.8 mL (A-to-B) or 0.4 mL (B-to-A)

[4] = tested on: Caco-2 cells; assay: in vitro; conditions: Caco-2
Procedure: as §1, §2, §3, §4, §5, §6, §7, §8, §9, §10, §11

T1 sequence (P61073 whole entry): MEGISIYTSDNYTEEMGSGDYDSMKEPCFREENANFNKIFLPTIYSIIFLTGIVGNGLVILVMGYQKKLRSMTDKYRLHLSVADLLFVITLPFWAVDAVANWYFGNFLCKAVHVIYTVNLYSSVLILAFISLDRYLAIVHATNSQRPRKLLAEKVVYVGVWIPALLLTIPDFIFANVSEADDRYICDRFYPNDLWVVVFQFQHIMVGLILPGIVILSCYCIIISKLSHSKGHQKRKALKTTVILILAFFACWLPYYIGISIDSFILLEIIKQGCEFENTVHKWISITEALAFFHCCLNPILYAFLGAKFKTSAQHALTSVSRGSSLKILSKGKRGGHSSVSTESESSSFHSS
T2 sequence (P61073 whole entry): as above

| Compound | IC50 [1] [nM] | IC50 [2] [nM] | Papp A→B at 90 min, 10 μM [3] [×10⁻⁶ cm/s] | Papp B→A at 90 min, 10 μM [3] [×10⁻⁶ cm/s] | efflux ratio at 90 min, 10 μM [3] | permeability for Lucifer Yellow [4] |
| --- | --- | --- | --- | --- | --- | --- |
| OCCN(Cc1nc2ccccc2[nH]1)[C@H]1CCCc2cccnc21 [Compound I-55] | ≥ 1000 | 100 to 1000 | > 10 | > 10 | 0.1 to 10 | – |
| COc1cccnc1CCN(Cc1ncccc1C)Cc1ncccc1C [Compound I-56] | ≥ 1000 | 0.01 to 100 | 5 to 10 | > 10 | 0.1 to 10 | – |
| Cc1cccnc1CN(CCn1ccccc1=O)Cc1ncccc1C [Compound I-58] | ≥ 1000 | 100 to 1000 | > 10 | > 10 | 0.1 to 10 | – |
| Cc1cccnc1CN(CCc1cccc(O)n1)Cc1ncccc1C [Compound I-59] | ≥ 1000 | 100 to 1000 | > 10 | > 10 | 0.1 to 10 | – |
| Lucifer Yellow [reference compound] | – | – | – | – | – | low permeability |

Second part, the compound after the results:

| IC50 [1] [nM] | IC50 [2] [nM] | Papp A→B at 90 min, 10 μM [3] [×10⁻⁶ cm/s] | Papp B→A at 90 min, 10 μM [3] [×10⁻⁶ cm/s] | efflux ratio at 90 min, 10 μM [3] | permeability for Lucifer Yellow [4] | Compound |
| --- | --- | --- | --- | --- | --- | --- |
| ≥ 1000 | ≥ 1000 | > 10 | > 10 | 0.1 to 10 | – | NC(=O)CCN(Cc1nccs1)[C@H]1CCCc2cccnc21 [Compound I-50] |
| ≥ 1000 | 0.01 to 100 | 5 to 10 | > 10 | 0.1 to 10 | – | NC(=O)CCN(Cc1ncccc1-c1ccccc1)[C@H]1CCCc2cccnc21 [Compound I-51] |
| ≥ 1000 | 100 to 1000 | 5 to 10 | > 10 | 0.1 to 10 | – | Cc1cccnc1CN(CCc1c[nH]cn1)Cc1nccs1 [Compound I-52] |
| ≥ 1000 | 100 to 1000 | > 10 | > 10 | 0.1 to 10 | – | Clc1cccnc1CN(CCc1cnc[nH]1)Cc1nccs1 [Compound I-53] |
| ≥ 1000 | 100 to 1000 | 5 to 10 | > 10 | 0.1 to 10 | – | c1ccc2c(CN(CCc3c[nH]cn3)Cc3nccs3)nccc2c1 [Compound I-54] |
| 100 to 1000 | 0.01 to 100 | < 5 | > 10 | 0.1 to 10 | – | Cc1cccnc1CN(CCc1cnc[nH]1)Cc1ncccc1-c1ccccc1 [Compound I-57] |
